Data reported in ChEMBL document CHEMBL1201862, “PubChem BioAssay data set” (2004).
Calls of active or inactive are those of the source.

Tests used:
[1] = target: Dual specificity tyrosine-phosphorylation-regulated kinase 1A (Rattus norvegicus, UniProt Q63470); format: biochemical, Homo sapiens
[2] = target: T1, Sentrin-specific protease 1 (Homo sapiens, UniProt Q9P0U3); experiment: SENP1 catalytic domain blockers, concentration series – biochemical, kinetic FRET, dose response (AID 651697); format: functional; conditions: read-out: IC50_Mean
[3] = target: T1, Sentrin-specific protease 1; experiment: Dose response confirmation of small molecule inhibitors of the catalytic domain of the SUMO protease, SENP1 in a FRET assay.; format: functional; conditions: read-out: IC50_Mean
[4] = viability loss in HeLa cells – cytotoxicity control for MgcRacGAP inhibitor project, dose response (AID 624300); format: functional
[5] = target: T2, Rac GTPase-activating protein 1 (Homo sapiens, UniProt Q9H0H5); experiment: blockers of MgcRacGAP-driven Rac1 GTP hydrolysis – biochemical, ADP Hunter fluorescence, primary and confirmatory, confirmation (AID 624330); format: functional
T2 sequence (Q9H0H5 whole entry): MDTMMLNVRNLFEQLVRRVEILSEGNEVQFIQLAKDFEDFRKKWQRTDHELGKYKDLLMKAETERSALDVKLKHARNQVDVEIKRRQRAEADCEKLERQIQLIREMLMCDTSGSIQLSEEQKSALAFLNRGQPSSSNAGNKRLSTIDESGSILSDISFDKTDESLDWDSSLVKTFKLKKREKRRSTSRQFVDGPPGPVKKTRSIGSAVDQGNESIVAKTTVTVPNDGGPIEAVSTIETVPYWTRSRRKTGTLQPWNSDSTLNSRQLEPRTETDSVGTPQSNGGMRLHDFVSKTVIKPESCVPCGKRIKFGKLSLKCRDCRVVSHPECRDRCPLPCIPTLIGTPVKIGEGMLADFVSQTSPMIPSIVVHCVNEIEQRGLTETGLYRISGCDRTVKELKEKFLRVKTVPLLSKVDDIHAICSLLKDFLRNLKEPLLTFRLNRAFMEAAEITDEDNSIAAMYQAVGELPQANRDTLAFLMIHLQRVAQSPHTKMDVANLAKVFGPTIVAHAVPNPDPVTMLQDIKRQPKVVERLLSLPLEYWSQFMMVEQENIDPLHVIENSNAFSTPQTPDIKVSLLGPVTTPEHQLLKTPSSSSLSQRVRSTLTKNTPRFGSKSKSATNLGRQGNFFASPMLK

[6] = target: T3, DNA repair protein RAD52 homolog (Homo sapiens, UniProt P43351); format: functional, biochemical
T3 sequence (P43351 whole entry): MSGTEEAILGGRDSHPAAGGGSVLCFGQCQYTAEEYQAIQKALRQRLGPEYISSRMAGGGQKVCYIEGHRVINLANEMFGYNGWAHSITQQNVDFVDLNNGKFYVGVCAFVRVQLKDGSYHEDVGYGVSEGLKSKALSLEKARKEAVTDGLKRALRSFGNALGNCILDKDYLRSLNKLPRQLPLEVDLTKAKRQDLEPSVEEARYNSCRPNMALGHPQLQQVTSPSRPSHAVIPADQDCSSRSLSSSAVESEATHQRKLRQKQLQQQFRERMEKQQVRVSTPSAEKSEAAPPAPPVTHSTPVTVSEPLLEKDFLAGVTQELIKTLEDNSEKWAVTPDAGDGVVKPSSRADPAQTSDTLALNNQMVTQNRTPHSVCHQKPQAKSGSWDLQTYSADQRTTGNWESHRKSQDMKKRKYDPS

Transthyretin = Transthyretin (Homo sapiens, UniProt P02766); experiment: Luminescence-based cell-based high throughput dose response assay to identify activators of Transthyretin (TTR) transcription.; format: functional
[7] = CellTiter-Glo luminescence survival assay, SW480 colon tumor line, concentration-response curve, half-maximal inhibitory concentration (AID 1117338); format: functional
[8] = RKO cell viability reduction, dose response, CellTiter-Glo luminescence (AID 1117322); format: functional
[9] = cytotoxicity toward HCT116 cells – cell-based, CellTiter-Glo luminescence, IC50, dose response (AID 1117332); format: functional; conditions: HCT-116
[10] = SNU-C1 cell viability reduction, dose response, CellTiter-Glo luminescence (AID 1117323); format: functional, cell-based
[11] = cytotoxicity toward Colo320 cells – cell-based, CellTiter-Glo luminescence, IC50, dose response (AID 1117334); format: functional; conditions: COLO 320
[12] = cytotoxicity toward HT-29 cells – cell-based, CellTiter-Glo luminescence, IC50, dose response (AID 1117330); format: functional
[13] = Reduced DLD-1 viability, concentration-response, CellTiter-Glo luminescence (AID 1117352); format: functional
[14] = HCT116 cell viability decrease, GSK3B pretreatment – CellTiter-Glo, IC50, dose response (AID 1117339); format: functional; conditions: HCT-116
Cryptococcus neoformans = experiment: PubChem AID 686997; format: functional, organism-based
[15] = viability loss in HepG2 hepatoma cells – cell-based, ATP luminescence, dry powder, set 2, cytotoxicity control, dose response (AID 743129); format: functional
[16] = TB: CFU replicating Measured in Microorganism System Using Imaging - 7108-05_Inhibitor_Dose_DryPowder_Activity_Set2.; format: functional

T1 sequence (Q9P0U3 whole entry, the tested form may be a part): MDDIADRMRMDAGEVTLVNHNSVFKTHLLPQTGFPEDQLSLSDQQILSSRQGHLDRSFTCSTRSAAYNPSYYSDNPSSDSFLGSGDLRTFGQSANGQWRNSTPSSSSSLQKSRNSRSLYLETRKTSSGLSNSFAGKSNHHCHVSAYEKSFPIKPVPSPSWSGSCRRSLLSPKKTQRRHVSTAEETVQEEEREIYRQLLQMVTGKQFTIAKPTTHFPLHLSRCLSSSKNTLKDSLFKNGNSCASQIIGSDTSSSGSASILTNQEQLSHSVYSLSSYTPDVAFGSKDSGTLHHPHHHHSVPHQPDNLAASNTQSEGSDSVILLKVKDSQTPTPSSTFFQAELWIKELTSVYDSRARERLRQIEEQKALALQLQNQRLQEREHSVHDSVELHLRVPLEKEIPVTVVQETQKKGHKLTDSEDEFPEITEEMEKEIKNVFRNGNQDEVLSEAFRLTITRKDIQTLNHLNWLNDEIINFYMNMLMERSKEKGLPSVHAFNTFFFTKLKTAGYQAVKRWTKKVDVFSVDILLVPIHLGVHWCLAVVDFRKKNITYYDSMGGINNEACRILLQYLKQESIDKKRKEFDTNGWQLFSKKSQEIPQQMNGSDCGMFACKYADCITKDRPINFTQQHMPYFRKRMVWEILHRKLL

CN(C)CCNc1ccc(CO)c2oc3ccc(O)cc3c(=O)c12
AC50 [1]: 8.03 µM (active)
IC50 [2]: 14.1 µM (active)
IC50 [3]: 21.6 µM (inactive)
CC50 [4]: 50.8 µM (active)
IC50 [5]: 128 µM (active)
AC50 [6]: 2.51 µM (active)
EC50 (Transthyretin): > 167 µM (inactive)

CCCCCCCCCCCCCCCCCC[N+](C)(C)CCC[Si](OC)(OC)OC
IC50 [7]: > 20 µM (inactive)
IC50 [8]: > 20 µM (inactive)
IC50 [9]: > 20 µM (inactive)
IC50 [10]: > 20 µM (inactive)
IC50 [11]: > 20 µM (inactive)
IC50 [12]: > 20 µM (inactive)
IC50 [13]: > 20 µM (inactive)
IC50 [14]: > 20 µM (inactive)

COC(=O)C1=C(C)N(Cc2ccc(F)cc2)C(=S)NC1c1cccc(F)c1 (stereo not drawn)
AC50 (Cryptococcus neoformans): 36.7 µM (active)
AC50 [15]: > 52 µM (inactive)

Cn1c(NC(=O)c2ccccc2)nc2c3cccnc3ccc21
AbsAC90 [16]: 141.12 µM
